Laboratory results published in US11466044B2 (WAYNE STATE UNIVERSITY, priority 2017, dated 2022).
In brackets after ≈: the same amount, converted by molar mass. Like-named read-outs stand apart in the source and are kept apart here.

Experiments:
[1] = tested on: M. smegmatis SZ380; assay: MIC by broth microdilution, M. smegmatis; conditions: Mycolicibacterium smegmatis
[2] = tested on: cytosolic ribosome (human chimeric); format: biochemical
Source text: (§1) The antiribosomal activity of these compounds was investigated with cell-free translation assays using both wild type bacterial ribosomes and hybrid ribosomes carrying eukaryotic decoding A sites enabling the prediction of selectivity.

[3] = tested on: mitochondrial ribosome (human chimeric); format: biochemical
Source text: as §1

[4] = tested on: Klebsiella pneumonia AG215; assay: MIC by broth microdilution, Klebsiella pneumonia; format: cell-based; conditions: Klebsiella pneumoniae; strain AG215 Klebsiella pneumonia; read-out: MIC AG215 K. pneumon
[5] = tested on: Enterobacter cloacae AG290; assay: MIC by broth microdilution, Enterobacter cloacae; format: cell-based; conditions: strain AG290 Enterobacter cloacae; read-out: MIC AG290 E. cloacae
[6] = tested on: wild type bacterial ribosomes; assay: in-vitro translation assay, bacterial ribosomes; format: biochemical
Source text: as §1

[7] = tested on: Acinetobacter baumannii pittii AG225; assay: MIC by broth microdilution, Acinetobacter baumannii; format: cell-based; conditions: strain AG225 Acinetobacter baumannii pittii
[8] = tested on: rabbit reticulocyte ribosomes; assay: in-vitro translation assay, rabbit reticulocyte ribosomes; format: biochemical; conditions: mammalian cytosolic ribosomes (rabbit)
[9] = tested on: E coli wild type; assay: MIC by broth microdilution, wild type E coli; format: cell-based; conditions: Escherichia coli
[10] = tested on: N. gonorrhoeae; assay: Disk diffusion, N. gonorrhoeae; format: cell-based; conditions: Neisseria gonorrhoeae
[11] = tested on: A1555G mutant mitochondrial ribosome (human chimeric); assay: in-vitro translation assay, human chimeric ribosomes, A1555G mutant mitochondrial decoding site; format: biochemical; conditions: human mitochondrial decoding site with A1555G point mutation; read-out: IC50 Mitoch. A1555G
Source text: as §1

[12] = tested on: MRSA; assay: MIC by broth microdilution, MRSA isolates; format: cell-based; conditions: for MIC50 / MIC: Staphylococcus aureus, MRSA
[13] = tested on: P aeruginosa; assay: MIC by broth microdilution, P aeruginosa isolates; format: cell-based, Pseudomonas aeruginosa; conditions: Pseudomonas aeruginosa

## NC[C@@H]1O[C@H](O[C@H]2[C@@H](O)[C@H](O[C@@H]3[C@@H](O)[C@H](N)C[C@H](N)[C@H]3O[C@H]3O[C@H](CO)[C@@H](O)[C@H](O)[C@H]3N)O[C@@H]2CO)[C@H](N)[C@@H](O)[C@@H]1O [paromomycin, reference compound]
[1]; SZ380, read-out: MIC M. smegmatis SZ380 WT, SZ380 WT, Table 5 (Example 3)
  MIC: 1 mg/L (≈ 1.62 µM)
[1]; SZ380, read-out: MIC SZ380 M. smegmatis, strain SZ380 Mycobacterium smegmatis
  MIC: 1 mg/L (≈ 1.62 µM)
[2]; cytosolic, Table 3 (Example 1), read-out: IC50 Cyt
  IC50: 31 µM
[2]; cytosolic, Table 3 (Example 2), read-out: IC50 Cyt
  IC50: 31 µM
[2]; cytosolic, Table 4 (Example 3), read-out: IC50 Cyt
  IC50: 31 µM
[2]; ribosomes with a human cytosolic decoding site, read-out: IC50 Cytosolic
  IC50: 31 µM
[3]; mitochondrial, Table 3 (Example 1), read-out: IC50 Mit
  IC50: 140 µM
[3]; mitochondrial, Table 3 (Example 2), read-out: IC50 Mit
  IC50: 140 µM
[3]; mitochondrial, Table 4 (Example 3), read-out: IC50 Mit
  IC50: 140 µM
[3]; ribosomes with a human mitochondrial decoding site, read-out: IC50 Mitoch.
  IC50: 140 µM
[4]
  MIC: 1 mg/L (≈ 1.62 µM)
[5]
  MIC: 2 mg/L (≈ 3.25 µM)
[6]; Mycobacterium smegmatis ribosomes, read-out: IC50 Bacterial
  IC50: 0.04 µM
[6]; bacterial ribosome, Table 3 (Example 1), read-out: IC50 Bac
  IC50: 0.04 µM
[6]; bacterial ribosome, Table 3 (Example 2), read-out: IC50 Bac
  IC50: 0.04 µM
[6]; bacterial ribosome, Table 4 (Example 3), read-out: IC50 Bac
  IC50: 0.04 µM
[7]
  MIC: 2 mg/L (≈ 3.25 µM)
[8]
  IC50: 21 µM
[9]; AG006 wt, Table 2 (Example 1), read-out: MIC E coli AG006 wt
  MIC: 1 to 2 mg/L (≈ 1.62 to 3.25 µM)
[9]; AG102 wt, Table 2 (Example 1), read-out: MIC E coli AG102 wt
  MIC: 1 mg/L (≈ 1.62 µM)
[9]; AG160 wt, Table 2 (Example 1), read-out: MIC E coli AG160 wt
  MIC: 2 to 4 mg/L (≈ 3.25 to 6.5 µM)
[9]; ATCC25922, strain AG212 E. coli (ATCC25922), read-out: MIC AG212 E. coli
  MIC: 2 to 4 mg/L (≈ 3.25 to 6.5 µM)
[9]; BM13 (AG06) wt, Table 2A (Example 2), read-out: MIC50 E coli BM13 (AG06) wt
  MIC50: 2 to 4 mg/L (≈ 3.25 to 6.5 µM)
[9]; E. coli strain pH430, WT, read-out: MIC pH430 WT
  MIC: 1 to 2 mg/L (≈ 1.62 to 3.25 µM)
[9]; WT, Table 3 (Example 1), read-out: MIC WT
  MIC: 1 to 2 mg/L (≈ 1.62 to 3.25 µM)
[9]; WT, Table 3 (Example 2), read-out: MIC WT
  MIC: 1 to 2 mg/L (≈ 1.62 to 3.25 µM)
[9]; WT, Table 4 (Example 3), read-out: MIC E. coli WT
  MIC: 1 to 2 mg/L (≈ 1.62 to 3.25 µM)
[9]; WT, Table 5 (Example 3), read-out: MIC E. coli WT
  MIC: 1 to 2 mg/L (≈ 1.62 to 3.25 µM)
[9]; clinical isolate AG001, WT, read-out: MIC AG001 E. coli WT
  MIC: 2 mg/L (≈ 3.25 µM)
[9]; clinical isolate AG001, Table 1 (Example 3), read-out: MIC E coli AG001
  MIC: 16 to 32 mg/L (≈ 26 to 52 µM)
[9]; clinical isolate AG003, Table 1 (Example 3), read-out: MIC E coli AG003
  MIC: 8 to 16 mg/L (≈ 13 to 26 µM)
[9]; clinical isolate AG055, WT, read-out: MIC AG055 E. coli WT
  MIC: 2 mg/L (≈ 3.25 µM)
[9]; clinical isolate AG055, Table 1 (Example 3), read-out: MIC E coli AG055
  MIC: 8 mg/L (≈ 13 µM)
[9]; clinical isolate AG160 WT, Table 2 (Example 4), read-out: MIC AG160 E. coli WT
  MIC: 2 to 4 mg/L (≈ 3.25 to 6.5 µM)
[9]; engineered strain pH430 WT, Table 2 (Example 4), read-out: MIC pH430 E. coli WT
  MIC: 1 to 2 mg/L (≈ 1.62 to 3.25 µM)
[9]; read-out: MIC50 E coli pH430 WT
  MIC50: 1 to 2 mg/L (≈ 1.62 to 3.25 µM)
[9]; read-out: MIC E coli AG006 Wild type, AG006 Wild type, Table 2 (Example 3)
  MIC: 2 mg/L (≈ 3.25 µM)
[9]; read-out: MIC E coli AG104 Wild type, AG104 Wild type, Table 2 (Example 3)
  MIC: 2 mg/L (≈ 3.25 µM)
[9]; strain AG01, Table 1 (Example 1), read-out: MIC50 E coli AG01
  MIC50: 2 to 4 mg/L (≈ 3.25 to 6.5 µM)
[9]; strain AG01, Table 1 (Example 2), read-out: MIC50 E coli AG01
  MIC50: 2 to 4 mg/L (≈ 3.25 to 6.5 µM)
[9]; strain AG03, Table 1 (Example 1), read-out: MIC50 E coli AG03
  MIC50: 4 mg/L (≈ 6.5 µM)
[9]; strain AG03, Table 1 (Example 2), read-out: MIC50 E coli AG03
  MIC50: 4 mg/L (≈ 6.5 µM)
[9]; strain AG55, Table 1 (Example 1), read-out: MIC50 E coli AG55
  MIC50: 2 to 4 mg/L (≈ 3.25 to 6.5 µM)
[9]; strain AG55, Table 1 (Example 2), read-out: MIC50 E coli AG55
  MIC50: 2 to 4 mg/L (≈ 3.25 to 6.5 µM)
[10]
  zone of inhibition at 25 nmol/disc: 9 mm
[11]
  IC50: 15 µM
[12]; read-out: MIC50 MRSA AG39
  MIC50: > 256 mg/L
[12]; read-out: MIC50 MRSA AG42
  MIC50: > 256 mg/L
[12]; read-out: MIC AG039 MRSA AAC(6′)-I ANT(4′)-I
  MIC: > 256 mg/L
[12]; read-out: MIC AG042 MRSA AAC(6′)-I ANT(4′)-I APH(2′)
  MIC: > 256 mg/L
[12]; read-out: MIC MRSA AG039
  MIC: > 256 mg/L
[12]; read-out: MIC MRSA AG042
  MIC: > 256 mg/L
[12]; strain AG38, Table 1 (Example 1), read-out: MIC50 MRSA AG38
  MIC50: 4 mg/L (≈ 6.5 µM)
[12]; strain AG38, Table 1 (Example 2), read-out: MIC50 MRSA AG38
  MIC50: 4 mg/L (≈ 6.5 µM)
[12]; strain AG44, Table 1 (Example 1), read-out: MIC50 MRSA AG44
  MIC50: 4 to 8 mg/L (≈ 6.5 to 13 µM)
[12]; strain AG44, Table 1 (Example 2), read-out: MIC50 MRSA AG44
  MIC50: 4 to 8 mg/L (≈ 6.5 to 13 µM)
[12]; clinical isolate AG038, Table 1 (Example 3), read-out: MIC MRSA AG038
  MIC: 4 mg/L (≈ 6.5 µM)
[12]; clinical isolate AG038, read-out: MIC AG038 MRSA
  MIC: 4 mg/L (≈ 6.5 µM)
[12]; clinical isolate AG044, Table 1 (Example 3), read-out: MIC MRSA AG044
  MIC: 4 to 8 mg/L (≈ 6.5 to 13 µM)
[12]; clinical isolate AG044, read-out: MIC AG044 MRSA
  MIC: 4 to 8 mg/L (≈ 6.5 to 13 µM)
[12]; strain AG39, Table 1 (Example 2)
  MIC50 MRSA AG39: >256 mg/L
[12]; strain AG42, Table 1 (Example 2)
  MIC50 MRSA AG42: >256 mg/L
[13]; read-out: MIC50 P aeruginosa AG31
  MIC50: > 128 mg/L
[13]; read-out: MIC50 P aeruginosa AG32
  MIC50: > 128 mg/L
